27 compounds from US10519177B2, “Heterocyclic compounds and uses thereof” (Plexxikon Inc., priority 2013, dated 2019) can be followed below.

A word on the IC50: it is the concentration that gives 50% inhibition.

Molecules are shown by their SMILES. A value given as a limit tells only on which side of the number the result lay.

The experiment deals with BRD4-BD1 (44-164) (Homo sapiens (Human), UniProt O60885). The experiment is described as follows: Alphascreen binding assay BRD4-BD1. The conditions noted are these: BRD4(1) H4; read-out: Biochemical activity (IC50 μM) BRD4(1) H4. As to the method:
Binding of compounds of formula (I) with bromodomain 2, 3 4 was assessed using Alphascreen binding assay. The inhibition of the interaction between bromodomain and its acetylated target protein (Filippakopoulos P et al. 2012) was measured quantitatively using recombinant BRD proteins, an acetylated Histone 4 peptide and AlphaScreen™ technology. In absence of inhibition the BRD protein bound to AlphaScreen™ nickel chelate acceptor beads can interact with the acetylated Histone 4 peptide which is immobilized by the AlphaScreen™ Streptavidin coated beads. This interaction brings donor and acceptor beads in proximity. The close proximity allows the singlet oxygen produced by laser excitation of the donor beads to reach the acceptor beads and generate a luminescence signal.
Recombinant human bromodomains containing the N-terminal bromodomain (BRD2-BD1 (71-194), BRD3-BD1 (24-144) and BRD4-BD1 (44-164)) or dual bromodomains (BRD4-BD12 (1-477), BRD4-BD12 (1-472)) were prepared and purified as described in protein expression and purification session. The peptide is human Histone H41-21K5AcK8AcK12AcK16Ac-Biotin (Anaspec CA, USA).
Protocol for BRD2, BRD3 and BRD4 assay: All components are prepared in buffer composed of 50 mM HEPES pH 7.5, 100 mM NaCl, 0.01% bovine serum albumin (“BSA”), 0.01% Triton X-100, 2 mM dithiothreitol (“DTT”). 7 μL of Bromodomain protein and 7 μL of peptide are added to wells containing 1 μL of various concentrations of test compounds of formula (I) or DMSO vehicle in an Alphaplate (PerkinElmer GA, USA) and incubated for 1 hour at room temperature. 4 μL donor and acceptor bead mixture is then added with final concentrations of 7.5 μg/ml. 30 minutes after bead addition, Alpha signal is read on the Envision spectrometer (λEx 680 nm, λEm 520-620 nm). Final concentrations of bromodomain proteins and peptide are as shown below.
All data was normalized to the mean of 16 high and 16 low control wells on each plate. A four parameter curve fit of the following formula was then applied: Y=a+(b−a)/(1+(x/c)^d) Where ‘a’ is the minimum, ‘b’ is the maximum, ‘c’ is the pIC50 and ‘d’ is the Hill slope. Protein Expression and Purification
Recombinant human bromodomains containing the N-terminal bromodomain (BRD2-BD1 (71-194), BRD3-BD1 (24-144) and BRD4-BD1 (44-164)) or dual bromodomains (BRD4-BD12 (1-477), BRD4-BD12 (1-472)) were expressed in E. coli cells (in a modified pET vector) with an N-terminal six-His tag and purified using a combination of both IMAC (Ni-affinity) and size exclusion chromatography steps.
Recombinant BRD proteins were expressed using the E. coli strain BL21-CodonPlus (DE3) (Agilent Technologies CA, USA). Cells were grown in Terrific Broth (TB) media to an OD600 of 1.2 at 37° C. at which temperature was reduced to 25° C., protein was induced with 1.0 mM ispropyl-β-D-thiogalactopyranoside (“IPTG”) for 12-18 hours and harvested by centrifugation at 8000×g for 20 minutes. Cells were re-suspended in 0.1M K2PO4 pH 8.0, 250 mM NaCl, 10% Glycerol, 0.75% NP-40, 25 mM Imidazole, 5 mM beta-mercaptoethanol (“BME”) with 0.2 mg/ml Lysosyme, 2.0 mM phenylmethanesulfonyl fluoride (“PMSF”), 25 μg/ml DNAse I, incubated on ice for 30 minutes and lyzed with a cell disruptor (MicroFluidics MA, USA). The lysate was clarified by centrifugation at 20,000×g for 2 hours. The protein was captured with Ni-NTA resin (Life Technologies, USA). Contaminating proteins were washed off with 25 mM Tris-HCl pH 8.3, 250 mM NaCl, 12% Glycerol and 50 mM Imidazole. Following 3× wash steps, protein was eluted step wise using a 50 mM HEPES pH 7.5, 500 mM NaCl and 400 mM Imidazole. The protein was further purified using Gel Filtration column 26/600 Superdex 200 (GE Biosciences NJ, USA) in 50 mM HEPES pH 7.5, 250 mM NaCl. The protein was aliquoted and flash-frozen in liquid Nitrogen.
For orientation: Bead proximity is the source of the signal in Alpha formats.

As for `CCc1[nH]c2ncc(-c3c(C)noc3C)cc2c1C(O)c1cccc(OC(F)(F)F)c1` (stereo not drawn) [P-0043, [5-(3,5-dimethylisoxazol-4-yl)-2-ethyl-1H-pyrrolo[2,3-b]pyridin-3-yl]-[3-(trifluoromethoxy)phenyl]methanol], the IC50 was < 1 µM.

Turning to `CCc1[nH]c2ncc(-c3c(C)noc3C)cc2c1C(O)C1CCC(F)(F)CC1` (stereo not drawn) [P-0044, (4,4-difluorocyclohexyl)-[5-(3,5-dimethylisoxazol-4-yl)-2-ethyl-1H-pyrrolo[2,3-b]pyridin-3-yl]methanol], the IC50 is < 1 µM.

In the case of `CCc1[nH]c2ncc(-c3c(C)noc3C)cc2c1C(OC)C1CCC(F)(F)CC1` (stereo not drawn) [P-0045, 4-[3-[(4,4-difluorocyclohexyl)-methoxy-methyl]-2-ethyl-1H-pyrrolo[2,3-b]pyridin-5-yl]-3,5-dimethyl-isoxazole], the concentration for half-maximal inhibition (IC50) is < 1 µM.

With `Cc1noc(C)c1-c1cnc2[nH]cc(Cc3ccccc3OC(F)F)c2c1` [P-0047, 4-[3-[[2-(difluoro-methoxy)phenyl]methyl]-1H-pyrrolo[2,3-b]pyridin-5-yl]-3,5-dimethyl-isoxazole], the IC50 was < 1 µM.

On to `Cc1noc(C)c1-c1cnc2[nH]cc(Cc3cccc4c3OC(F)(F)O4)c2c1` [P-0048, 4-[3-[(2,2-difluoro-1,3-benzodioxol-4-yl)methyl]-1H-pyrrolo[2,3-b]pyridin-5-yl]-3,5-dimethyl-isoxazole], for which the IC50 is < 1 µM.

Consider `CCc1[nH]c2ncc(-c3c(C)noc3C)cc2c1Cc1ccccc1Cl` [P-0049, 4-[3-[(2-chlorophenyl)methyl]-2-ethyl-1H-pyrrolo[2,3-b]pyridin-5-yl]-3,5-dimethyl-isoxazole], for which the 50% inhibitory concentration (IC50) is < 1 µM.

`CCc1[nH]c2ncc(-c3c(C)noc3C)cc2c1CC1CCC(F)(F)CC1` [P-0051, 4-[3-[(4,4-difluoro-cyclohexyl)methyl]-2-ethyl-1H-pyrrolo[2,3-b]pyridin-5-yl]-3,5-dimethyl-isoxazole]: the IC50 is < 1 µM.

As for `Cc1noc(C)c1-c1cnc2ccn(S(=O)(=O)c3ccccc3F)c2c1` [P-0060, 4-[1-(2-fluorophenyl)sulfonylpyrrolo[3,2-b]pyridin-6-yl]-3,5-dimethyl-isoxazole], the IC50 is < 1 µM.

As to `Cc1ccc(S(=O)(=O)n2ccc3ncc(-c4c(C)noc4C)cc32)s1` [P-0062, 3,5-dimethyl-4-[1-[(5-methyl-2-thienyl)sulfonyl]pyrrolo[3,2-b]pyridin-6-yl]isoxazole], the IC50 was < 1 µM.

With `Cc1noc(C)c1-c1cnc2[nH]cc(C(C)(C)c3ccc(F)cc3)c2c1` [P-0063, 4-[3-[1-(4-fluorophenyl)-1-methyl-ethyl]-1H-pyrrolo[2,3-b]pyridin-5-yl]-3,5-dimethyl-isoxazole], the IC50 was < 1 µM.

For `Cc1noc(C)c1-c1cnc2[nH]cc(C(c3ccc(F)cc3)C3CC3)c2c1` (stereo not drawn) [P-0064, 4-[3-[cyclopropyl-(4-fluorophenyl)methyl]-1H-pyrrolo[2,3-b]pyridin-5-yl]-3,5-dimethyl-isoxazole], the IC50 was < 1 µM.

As to `Cc1noc(C)c1-c1cnc2ccn(S(=O)(=O)C3CCCCC3)c2c1` [P-0066, 4-(1-cyclohexylsulfonyl-pyrrolo[3,2-b]pyridin-6-yl)-3,5-dimethyl-isoxazole], the IC50 was < 1 µM.

On to `Cc1noc(C)c1-c1cnc2ccn(S(=O)(=O)N3CCCCC3)c2c1` [P-0067, 3,5-dimethyl-4-[1-(1-piperidylsulfonyl)pyrrolo[3,2-b]pyridin-6-yl]isoxazole], for which the IC50 was < 1 µM.

`COC(c1cn(S(=O)(=O)C2CCCCC2)c2cc(-c3c(C)noc3C)cnc12)C1CC1` (stereo not drawn) [P-0071, 4-[1-cyclohexyl-sulfonyl-3-[cyclopropyl(methoxy)methyl]pyrrolo[3,2-b]pyridin-6-yl]-3,5-dimethyl-isoxazole]: the IC50 is < 1 µM.

As for `COC(c1c[nH]c2ncc(-c3c(C)noc3C)cc12)C1CCC(F)(F)CC1` (stereo not drawn) [P-0073, 4-[3-[(4,4-difluorocyclohexyl)-methoxy-methyl]-1H-pyrrolo[2,3-b]pyridin-5-yl]-3,5-dimethyl-isoxazole], the IC50 was < 1 µM.

As for `Cc1noc(C)c1-c1cnc2c(CC3CC3)cn(S(=O)(=O)C3CCCCC3)c2c1` [P-0075, 4-[1-cyclohexylsulfonyl-3-(cyclopropylmethyl)pyrrolo[3,2-b]pyridin-6-yl]-3,5-dimethyl-isoxazole], the IC50 is < 1 µM.

For `Cc1noc(C)c1-c1cnc2c(I)cn(S(=O)(=O)c3ccccc3)c2c1` [P-0076, 4-[1-(benzenesulfonyl)-3-iodo-pyrrolo[3,2-b]pyridin-6-yl]-3,5-dimethyl-isoxazole], the IC50 is < 1 µM.

Take `Cc1noc(C)c1-c1cnc2c(-c3ccccc3)cn(S(=O)(=O)c3ccccc3)c2c1` [P-0077, 4-[1-(benzenesulfonyl)-3-phenyl-pyrrolo[3,2-b]pyridin-6-yl]-3,5-dimethyl-isoxazole]: the IC50 is < 1 µM.

As for `CCS(=O)(=O)n1cc(C(OC)C2CCC(F)(F)CC2)c2cc(-c3c(C)noc3C)cnc21` (stereo not drawn) [P-0078, 4-[3-[(4,4-difluoro-cyclohexyl)-methoxy-methyl]-1-ethylsulfonyl-pyrrolo[2,3-b]pyridin-5-yl]-3,5-dimethyl-isoxazole], the IC50 is < 1 µM.

Take `Cc1noc(C)c1-c1cnc2c(-c3cccnc3)cn(S(=O)(=O)c3ccccc3)c2c1` [P-0084, 4-[1-(benzenesulfonyl)-3-(3-pyridyl)pyrrolo[3,2-b]pyridin-6-yl]-3,5-dimethyl-isoxazole]: the IC50 was < 1 µM.

For the compound `Cc1noc(C)c1-c1cnc2[nH]cc(C(c3ccc(F)cc3)(C3CC3)C3CC3)c2c1` [P-0085, 4-[3-[dicyclopropyl-(4-fluorophenyl)methyl]-1H-pyrrolo[2,3-b]pyridin-5-yl]-3,5-dimethyl-isoxazole], the IC50 was < 1 µM.

As for `COC(c1c[nH]c2ncc(-c3c(C)noc3C)cc12)C1CCS(=O)(=O)CC1` (stereo not drawn) [P-0089, 4-[[5-(3,5-dimethylisoxazol-4-yl)-1H-pyrrolo[2,3-b]pyridin-3-yl]-methoxy-methyl]thiane 1,1-dioxide], the 50% inhibitory concentration (IC50) is < 1 µM.

For `Cc1noc(C)c1-c1cnc2c(c1)c(C(O)C1CCSCC1)cn2S(=O)(=O)c1ccccc1` (stereo not drawn) [P-0090, [1-(benzenesulfonyl)-5-(3,5-dimethylisoxazol-4-yl)pyrrolo[2,3-b]pyridin-3-yl]-tetrahydrothiopyran-4-yl-methanol], the IC50 was < 1 µM.

`Cc1noc(C)c1-c1cnc2[nH]cc(CC3CCS(=O)(=O)CC3)c2c1` [P-0098, 4-[[5-(3,5-dimethylisoxazol-4-yl)-1H-pyrrolo[2,3-b]pyridin-3-yl]methyl]thiane 1,1-dioxide]: the IC50 was < 1 µM.

For `Cc1noc(C)c1-c1cnc2c(-c3cnc(C4CC4)nc3)cn(S(=O)(=O)C3CCCC3)c2c1` [P-0103, 4-[1-cyclopentyl-sulfonyl-3-(2-cyclopropylpyrimidin-5-yl)pyrrolo[3,2-b]pyridin-6-yl]-3,5-dimethyl-isoxazole], the IC50 was < 1 µM.

As for `COc1ncc(-c2cn(S(=O)(=O)c3ccccc3)c3cc(-c4c(C)noc4C)cnc23)cn1` [P-0104, 4-[1-(benzenesulfonyl)-3-(2-methoxypyrimidin-5-yl)pyrrolo[3,2-b]pyridin-6-yl]-3,5-dimethyl-isoxazole], the IC50 was < 1 µM.

Consider `COc1ncc(-c2cn(S(=O)(=O)C3CCCC3)c3cc(-c4c(C)noc4C)cnc23)cn1` [P-0105, 4-[1-cyclopentylsulfonyl-3-(2-methoxypyrimidin-5-yl)pyrrolo[3,2-b]pyridin-6-yl]-3,5-dimethyl-isoxazole], for which the IC50 was < 1 µM.
